Marks after values point to notes of the source that are not given here.
Legend:
[1] = test system: thoracic aortas of T1D rats; assay: Vasodilation of thoracic aortic rings from T1D rats (acetylcholine, sodium nitroprusside); format: in vivo, rat; conditions: three groups of animals compared, FIG. 5E
Method: FIG. 5A is a graph showing the measurement of proteinuria in urine from control, T1D and MIA-602/T1D rats, expressed as the albumin/creatinine ratio (n=5 per group). FIG. 5B: Upper panel: representative immunoblot of α-smooth muscle actin (α-sma) expression (a marker of fibroblast activation and renal fibrosis) in homogenates of kidney cortex.
Therefore, MCP-1 levels in the serum were analyzed. […] Both dyslipidemia and increased MCP-1 plasma levels represent risk factors for vascular endothelial dysfunction. […] Responses to the endothelial-independent vasodilator sodium nitroprusside (SNP) were similar amongst the three groups of animals (FIG. 5E).

[2] = test system: lung microvascular endothelial cells; conditions: reference (24); cited from earlier work
T1D rats [3] = assay: Plasma metabolites, lipids, glucose regulatory hormones and chemokines in T1D rats; format: in vivo, rat
Method: (§1) T1 Diabetes Animal Model. Wistar rats (male, 200-250 g, Envigo RMS, Inc.) were rendered diabetic with a single dose of streptozotocin (STZ, 50 mg/kg body weight, i.p.). Once rats became hyperglycemic (>350 mg/dl plasma glucose, usually 3-4 days post STZ injection), they were divided into two groups, with and without treatment with the GHRH antagonist MIA-602 ([…], s.c.) administered three times a week for 14 weeks after establishment of diabetes. Untreated animals received vehicle alone with the same regimen. Upon completion of the 14 weeks period, animals were placed in metabolic cages for 3 days for adaptation, allowing them free movement, water and food intake. During the entire experiment, rats were fed regular rat chow (Teklad Diet, Madison, Wis.) and received water ad libitum. On the third day in the metabolic cages, food and water intake was monitored for a period of 24 hours. 24-hour urine specimens were also collected, centrifuged at 400×g for 5 minutes for particulate removal, aliquoted and stored at −80° C. Animals were then euthanized in the morning around 10 am in a fed state, under deep anesthesia with isoflurane, by exsanguination, followed by removal of vital organs. Plasma was separated from heparinized blood samples, aliquoted and saved at −80° C. for further analysis. Rats were handled according to high ethical and scientific standards for laboratory animals, and our protocol was reviewed and approved by the Institutional Animal Care and Use Committee at the Medical College of Georgia at Augusta University.
(§2) Determination of metabolites. ApoB-48 lipoprotein was measured in plasma samples from rats and in culture medium supernatant from IEC by the use of a commercial ELISA kit (MyBioSource). The VLDL/LDL Cholesterol Assay kit (Abcam), the Total Cholesterol Assay kit (Wako) and the PicoProbe Triglyceride Quantification Assay Kit (Abcam) were used for analysis of VLDL/LDL fractions, total cholesterol and triglycerides in plasma samples. Albumin and creatinine levels in urine were analyzed by the use of Nephrat II and Creatinine Companion (Exocell) assay kits, respectively. Chemokines and glucose regulatory hormones (MCP-1, insulin, amylin, GIP and glucagon) were analyzed using the MILLIPLEX MAP Rat Metabolic Hormone Magnetic Bead Panel—Metabolism Multiplex Assay (RMHMAG-84K, EMD Millipore). Levels of growth hormone (GH) were assay with Rat Growth Hormone ELISA kit (EMD Millipore). Glucose levels were measured in blood by AlphaTRAK Blood Glucose Monitoring System.

T1D rats [4] = assay: Kidney damage in T1D rats: proteinuria (albumin/creatinine ratio) and α-sma expression in kidney cortex; format: in vivo, rat; conditions: MIA-602 treatment vs vehicle-treated T1D
Method: (§3) T1 Diabetes Animal Model. Wistar rats (male, 200-250 g, Envigo RMS, Inc.) were rendered diabetic with a single dose of streptozotocin (STZ, 50 mg/kg body weight, i.p.). Once rats became hyperglycemic (>350 mg/dl plasma glucose, usually 3-4 days post STZ injection), they were divided into two groups, with and without treatment with the GHRH antagonist MIA-602 ([…], s.c.) administered three times a week for 14 weeks after establishment of diabetes. Untreated animals received vehicle alone with the same regimen. Upon completion of the 14 weeks period, animals were placed in metabolic cages for 3 days for adaptation, allowing them free movement, water and food intake. […] On the third day in the metabolic cages, food and water intake was monitored for a period of 24 hours. […]
Determination of metabolites. ApoB-48 lipoprotein was measured in plasma samples from rats and in culture medium supernatant from IEC by the use of a commercial ELISA kit (MyBioSource). The VLDL/LDL Cholesterol Assay kit (Abcam), the Total Cholesterol Assay kit (Wako) and the PicoProbe Triglyceride Quantification Assay Kit (Abcam) were used for analysis of VLDL/LDL fractions, total cholesterol and triglycerides in plasma samples. Albumin and creatinine levels in urine were analyzed by the use of Nephrat II and Creatinine Companion (Exocell) assay kits, respectively. […]

[5] = test system: Dipeptidyl-Peptidase 4 (DPP4); assay: Plasma DPP4 activity in T1D rats (ELISA kit); format: in vivo, rat; conditions: non-fasting state, MIA-602 treatment, FIG. 6
Method: Treatment with MIA-602 blunted this effect. DPP4 activity values were measured in plasma obtained from rats in the non-fasting state, by the use of a commercial ELISA kit (MyBioSource).
as §1, with “Plasma was separated from heparinized blood samples, aliquoted and saved at −80° C. for further analysis. Rats were handled according to high ethical and scientific standards for laboratory animals, and our protocol was reviewed and approved by the Institutional Animal Care and Use Committee at the Medical College of Georgia at Augusta University.” left out

GHRH receptor = assay: Western blot of GHRH receptor expression in jejunum-ileum of T1D rats; format: in vivo, rat; conditions: diabetic rats, MIA-602 25 μg/kg s.c. three times a week for fourteen weeks, vs vehicle diabetic
Method: as §3
(§4) The entire small intestine was removed and its length was measured from the pylorus to the ileocecal junction. […] Proteins were detected with the following antibodies: GHRH receptor (Abcam), GLP-1 receptor (Santa Cruz Inc), α-sma (Sigma-Aldrich), or β-actin (Sigma-Aldrich). Data obtained from Western blots were processed by ImageJ quantification software.
T1D was induced in Wistar rats (male, 320-350 g) with intraperitoneal injection of a single dose of STZ (50 mg/kg body weight). […] The entire small intestine was removed from rats, and its length was measured from the pylorus to the ileocecal junction. […]

[6] = test system: Rat small intestinal epithelial cells (IEC-6); assay: ApoB-48 lipoprotein secretion by cultured intestinal epithelial cells challenged with oleic acid; format: cell-based
Method: Cell culture. Rat small intestinal epithelial cells (IEC-6, ATCC® CRL-1592™) were grown in 6-well plates in DMEM medium supplemented with 10% fetal bovine serum (heat inactivated FBS, Gibco/Invitrogen), 1 mM sodium pyruvate, 2 mM L-alanyl-L-glutamine (GLUTAMAX I), 5 μg/ml insulin (Sigma-Aldrich), 100 U/ml penicillin and 100 μg/ml streptomycin at 37° C. in a 5% CO2 atmosphere. For all experiments, cells up to passage 6 were used for all experiments.
Peptide Analogs Preparation. GHRH agonist JI-34, and GHRH antagonist MIA-602 were synthesized in the laboratory of A.V.S. (23, 24) and dissolved initially in DMSO before dilution with incubation medium. The final concentration of DMSO in the medium never exceeded 0.1% v/v.
Assessment of ApoB-48 lipoprotein secretion by cultured intestinal epithelial cells. Upon confluence, cells were washed twice with serum-free DMEM medium, upon which fresh serum-free medium, supplemented with or without 5 μg/ml insulin was added. After 2 hrs of equilibration, cells were pre-treated for 1 hour with the GHRH receptor agonist JI-34 (1 μM, dissolved in DMSO), while control cells received vehicle alone, followed by addition of the GLP-1 receptor agonist (Exendin-4, 10 nM, Sigma-Aldrich). After 3 hrs, cells were treated with 0.5 mM oleic acid (OA) complexed to BSA (Sigma-Aldrich) for 3 hrs, to allow for lipid loading into ApoB-48 lipoproteins. Additional cells were pre-incubated or not for 1 h with the GLP-1 receptor antagonist Exendin 9-39 (100 nM, Sigma-Aldrich), or the GHRH antagonist MIA-602 (1 μM, dissolved in DMSO). Upon completion of treatment, medium was collected, centrifuged at 1,000×g for 3 minutes, and saved at −80° C. for further analysis.
as §2

GLP-1 receptor = assay: Western blot of GLP-1 receptor expression in T1D rats; format: in vivo, rat; conditions: MIA-602 treatment vs augmented expression in T1D, FIG. 3A
Method: T1 Diabetes Animal Model. Wistar rats (male, 200-250 g, Envigo RMS, Inc.) were rendered diabetic with a single dose of streptozotocin (STZ, 50 mg/kg body weight, i.p.). Once rats became hyperglycemic (>350 mg/dl plasma glucose, usually 3-4 days post STZ injection), they were divided into two groups, with and without treatment with the GHRH antagonist MIA-602 ([…], s.c.) administered three times a week for 14 weeks after establishment of diabetes. Untreated animals received vehicle alone with the same regimen. Upon completion of the 14 weeks period, animals were placed in metabolic cages for 3 days for adaptation, allowing them free movement, water and food intake. During the entire experiment, rats were fed regular rat chow (Teklad Diet, Madison, Wis.) and received water ad libitum. On the third day in the metabolic cages, food and water intake was monitored for a period of 24 hours. 24-hour urine specimens were also collected, centrifuged at 400×g for 5 minutes for particulate removal, aliquoted and stored at −80° C. […]
as §4

Phac-Ada-Ty^1-D-Arg^2-Asp^3-Ala^4-Ile^5-Phe(F)5^6-Thr^7-Ala^8-Har^9-Tyr(me)^10-His^11-Orn^12-Val^13-Leu^14-Abu^15-Glu^16-Leu^17-Ser^18-Ala^19-His^20-Orn^21-Leu^22-Leu^23-Glu^24-Asp^25-Ile^26-Nle^27-D-Arg^28-Har^29-NH2 [MIA-602]
Responses to the endothelial-independent vasodilator sodium nitroprusside (SNP) [1]: similar
Barrier function [2]: slightly decreased
Plasma levels of apolipoprotein B-48 (ApoB-48) (T1D rats [3]; T1D rats treated with MIA-602, FIG. 2D): blunted
Plasma levels of GIP (T1D rats [3]; T1D rats treated with MIA-602, not significant vs vehicle-treated diabetic (85.7±37.5)): 46.7 ± 9.6 pg/mL
Lipemic plasma (visual) (T1D rats [3]; T1D rats treated with MIA-602 vs vehicle, FIG. 2A): significant reduction
Total cholesterol levels in plasma (T1D rats [3]; T1D rats treated with MIA-602 vs vehicle-treated STZ diabetic animals, FIG. 2B): lower
VLDL/LDL-cholesterol in plasma (T1D rats [3]; T1D rats treated with MIA-602 vs vehicle-treated STZ diabetic animals, FIG. 2C): lower
Plasma glucagon (T1D rats [3]; T1D rats, MIA-602 25 μg/kg s.c. three times a week for 14 weeks, p < 0.02 vs Diabetes): 55.9 ± 34.3^c pg/ml
Plasma GLP-1 (T1D rats [3]; T1D rats, MIA-602 25 μg/kg s.c. three times a week for 14 weeks, p < 0.05 vs Diabetes): 48.7 ± 25.2^e pg/ml
MCP-1 serum levels (T1D rats [3]; T1D rats, MIA-602 treatment, FIG. 5C): reduced
Plasma triglyceride levels (T1D rats [3]; T1D rats, MIA-602 treatment, p<0.01 vs. STZ (89.3±4.2), n=6 per group): 82.3 ± 2.8 mg/dL
Plasma glucose (T1D rats [3]; T1D rats, non-fasting, MIA-602 25 μg/kg s.c. three times a week for 14 weeks, no insulin): 603 ± 137.4^b mg/dl
Proteinuria (albumin/creatinine ratio) (T1D rats [4]; FIG. 5A): reduced
α-sma expression in kidney cortex (T1D rats [4]; Western blot, FIG. 5B): reduced
Plasma Dipeptidyl-Peptidase 4 (DPP4) activity [5]: reduced
Blunting of GHRH receptor expression in jejunum-ileum (Western blot densitometry) (GHRH receptor): approximately 5 fold
ApoB-48 released into medium ([6]; oleic acid (0.5 mM)-treated IEC, no insulin, agent alone at 1 μM, no GLP-1 agonist, oleic acid alone 6.67±0.26): 3.43 ± 0.15 µg/mL
ApoB-48 released into medium ([6]; oleic acid-treated IEC, MIA-602 (1 μM) in the presence of JI-34 and exendin-4): 4.47 ± 0.46 µg/mL
GLP-1 receptor expression in distal small intestine and liver (GLP-1 receptor): unaffected

exendin 9-39
ApoB-48 released into medium ([6]; oleic acid-treated IEC, exendin 9-39 (100 nM) together with MIA-602 (1 μM), MIA-602 alone 3.43±0.15): 7.56 ± 0.53 µg/mL
ApoB-48 released into medium ([6]; oleic acid-treated IEC, pretreatment 100 nM, then exendin-4 (10 nM), exendin-4 alone 4.44±0.36): 8.78 ± 0.34 µg/mL

exendin-4: GLP-1 receptor agonist (Sigma-Aldrich)
ApoB-48 released into medium ([6]; oleic acid (0.5 mM)-treated IEC, no insulin, agent alone at 10 nM, oleic acid alone 6.67±0.26, medium alone 3.48±0.98): 4.44 ± 0.36 µg/mL
